According to a melting point compilation (Tetko et al.; mined from patent text by program, amines drawn as free bases though some values may be those of a salt):

Row | melting point [°C] | Structure (SMILES)
1 | 184 to 186 | CN(C(=O)C1CCCCC1)c1cccc(-c2nc(=O)c3ccccc3s2)n1
2 | 87 to 89 | COC(=O)c1ccc(S(C)(=O)=O)c(-c2ccon2)c1C
3 | 268 to 272 | CC(=O)Nc1nc2c(s1)C(=O)CCC2
4 | 245 to 247 | COc1ccc(-c2c3c(cc4ccc5c(c24)OCO5)C(=O)NCC3)cc1
5 | 88 | OCCSC(=S)Nc1ccccn1
6 | 218 to 219 | COC(=O)[C@@](C#N)(Cc1ccc(Br)cc1)[C@H](c1ccccc1OC)c1cccc2ccccc12 (relative stereo)
7 | 132 to 138 | O=C(CC1(c2ccccc2)CC1)C(=O)Nc1ccc2c(c1)COC2=O
8 | 221 to 222 | CC(C)Cn1c(CON2C(=O)c3ccccc3C2=O)nc2c(N)nc3ccccc3c21
9 | 174 | CCCOC(N)=C(C#N)C(N)=S
10 | 143 | CCCCC(CC)COc1ccc(-n2c(C)cc(=O)cc2C)cc1 (centres undefined)
11 | 120 to 122 | COCc1ccc(C[C@@H]2O[C@H](COC(C)=O)[C@@H](OC(C)=O)[C@H](OC(C)=O)[C@H]2OC(C)=O)cc1
12 | 228 to 230 | COc1ccc(C(=O)c2ccc(=O)[nH]c2C)cc1
13 | 100 to 101 | O=C(NCCCC(c1cc(F)ccc1F)S(=O)(=O)c1ccc(Cl)cc1)OCCI (centres undefined)
14 | 165 to 166 | Cc1nc(OC(F)F)nc(C)c1N1CCCn2c1nc1c(Cl)ccc(C(OC(F)F)C(F)(F)F)c12 (centres undefined)
15 | 180 to 182 | CCOC(=O)c1c(C)[nH]c(-c2ccncc2)c1C
16 | 135 to 137 | CCC12CCC3=C(CCc4cc(OC)ccc43)C1CCC21OCCO1 (centres undefined)
17 | 250 | CCCC(=O)Nc1n[nH]c2cc(Cl)c(Br)cc12
18 | 167 to 168 | Clc1ccc2c(c1)C(c1ccccc1Cl)OCc1nnc(Br)n1-2 (centres undefined)
19 | 80 to 82 | COc1ccc(-c2cc(C)c(N)c(CO)c2)cn1
20 | 239 to 241 | Cc1cccc(Nc2ccccc2-c2n[nH]c(=O)o2)c1C
21 | 176 to 177 | CCS(=O)(=O)c1cc(S(N)(=O)=O)sc1S(=O)(=O)CC
22 | 165 to 167 | O=C(CN1CCN(c2ccc(NC(=O)c3ccccc3-c3ccc(C(F)(F)F)cc3)cc2)CC1)NCc1cccc(-c2ccccc2)c1
23 | 133 to 135 | CC1(C(O)CBr)COc2cc(Cl)ccc2O1 (centres undefined)
24 | 227 to 230 | Cc1ccc(Sc2cncc3sc(C=NOCC(=O)O)cc23)cc1

Row | melting point [°C] | Structure (SMILES)
25 | > 300 | O=c1cc(C2CCc3ccccc3C2)[nH]c2ccccc12 (racemic)
26 | 295 to 297 | Clc1ccc2c(c1)c(-c1ccccc1)nc1nncn12
27 | 106 to 108 | O=[N+]([O-])c1ccc(N2C[C@@H]3C[C@H]2CO3)c(F)c1
28 | 40 to 42 | CCCCCCCCCCCC1=NCCN1CCO
29 | 199 to 200 | COCCc1nc2c(N)nc3ccccc3c2n1CCCNC(=S)NC1CCCCC1
30 | 98 | CCCCOC(=O)N1CCNCC1
31 | 50 to 53 | O=[N+]([O-])c1cc(Cl)c(Br)cc1Cl
32 | 154 | CCOC(=O)c1c(C)n(C)c(-c2ccccc2)cc1=O
33 | 209 to 210 | CC(C)n1nc(-c2cnc(N)nc2-c2ccc(C(F)(F)F)cc2)ccc1=O
34 | 163 to 165 | Cc1oc(-c2ccccc2)nc1CC#Cc1ccc(CC(C(=O)O)c2ccc(-c3ccccc3)cc2)cc1 (centres undefined)
35 | 225 to 227 | COc1nc2cc(Cl)c(Cl)c(NS(C)(=O)=O)c2nc1OC
36 | 106 to 108 | O=C1c2ccccc2C(=O)N1OCc1cccc(C(F)(F)F)c1
37 | 225 to 229 | CC(C(=O)O)c1ccc2oc(N)nc2c1 (centres undefined)
38 | 128 to 130 | CC(C)Oc1ccccc1-c1ccoc1C(=O)NNC(=O)c1ccc(O)c(C#N)c1
39 | 62 to 65 | Cc1cc(Cl)nc(SCC#N)n1
40 | 103 to 104 | CC#Cc1ccc([C@H]2CC[C@H](CCCCC)CC2)nn1
41 | 77 to 78 | CCC(C)[C@H](NC(=O)OCC1CCCC1)C(=O)N[C@@H](Cc1ccccc1)C(=O)CSCc1ccco1 (some centres undefined)
42 | 65 to 75 | COCCOc1ccc(Nc2nc(Nc3cc4c(cc3OC)CCN(CC(=O)N(C)C)CC4)ncc2Cl)c(S(=O)(=O)C(C)C)c1
43 | 225 to 227 | CON1C=C2N=Nc3cc(-c4ccccc4)cnc3N2C1
44 | 239 to 241 | CCOC(=O)c1cn(C2CC2)c2cc(-c3cc(C(F)(F)F)nc(C(F)(F)F)c3)c(F)cc2c1=O
45 | 183 to 184 | COc1ccc(C2(CCCCl)S(=O)(=O)CCCS2(=O)=O)cc1OC
46 | 182 to 185 | CCCCOc1ccc(S(C)(=O)=O)cc1C(=O)Nc1c(C(N)=O)nn(CCN2CCOCC2)c1CC
47 | 247 to 249 | COc1c(Cl)cc(C(=O)Nc2c(Cl)cncc2Cl)c2c3ccccc3n(CC3CCCCC3)c12
48 | > 280 | Cc1cc(=O)n2nc(-c3ccc(F)cc3)c(-c3ccncc3)c2[nH]1

Row | melting point [°C] | Structure (SMILES)
49 | 236 to 237 | O=[N+]([O-])c1cc(O)cc2cc(-c3ccc(O)cc3)oc12
50 | 87 to 88 | CCOc1cc(OCC)nc(-c2ccc(C=O)cc2)n1
51 | 88 to 91 | CC#CNC(=O)NC(=NC(=O)N(C)C)SC
52 | 166 to 167 | CC(=O)N(CCN1CCNC1=C(C#N)C#N)Cc1ccc(CN2CCCCC2)o1
53 | 176 to 178 | N#Cc1ccccc1-c1ccc(O)cc1
54 | 62 to 63 | O=Cc1cc(-c2ccc(Cl)cc2Cl)ccc1OC(F)(F)F
55 | 166 to 168 | COc1ccc(C=CC2=NNC(C)Cc3cc4c(cc32)OCO4)cc1OC (centres undefined)
56 | 221 to 222 | COC(=O)c1cccc2[nH]c(-c3ccc(Cl)cc3)c(C=O)c12
57 | 75 to 77 | CN1CC(c2cccc(OCc3ccc4ccccc4n3)c2)OC1=O (centres undefined)
58 | 132 to 135 | COc1ccc(C(c2ccc(F)cc2)C(c2ccc(OC)cc2)C(F)(F)F)cc1 (centres undefined)
59 | 38 | CCCCCCCCCCCCCCCCOCC(CO)OCOC(c1ccccc1)(c1ccccc1)c1ccccc1 (centres undefined)
60 | 66 to 68 | CCOC(=O)C(=Cc1cccn2cc(C(C)C)nc12)N=[N+]=[N-]
61 | 126 to 128 | O=[N+]([O-])c1cc(NCc2c(F)c(F)c(C(F)(F)F)c(F)c2F)ccc1O
62 | 110 to 111 | CCOC(O)C(F)(F)C(F)(F)C(F)(F)C(F)(F)C(O)OCC (centres undefined)
63 | 103 to 104 | CC1(C)CCC(C)(C)c2cc(C(=O)COc3ccc(C(=O)OCc4ccccc4)c(O)c3)ccc21
64 | 200 | COc1ccc(-c2cncc(-c3cn(C)c(=O)n3-c3ccc(C(C)(C)C#N)cc3)c2)cc1
65 | 99 to 100 | COC(c1ccc(Cl)c2nc3n(c12)CCCN3c1ccc(Cl)cc1Cl)(C1CC1)C1CC1
66 | 101 to 102 | Cc1ccc(OC(=O)N2CCCC2=O)cc1
67 | 210 to 212 | CCCNC(=O)C=Cc1ccc2ccn(Cc3ccc(C(=O)O)cc3OC)c2c1
68 | 161 to 162 | COc1cccc([C@H]2O[C@H](CC(=O)N[C@H](CCSC)C(=O)O)C(=O)N(CC(C)(C)C)c3ccc(Cl)cc32)c1OC
69 | 239 to 240 | CC(c1oc2ccc(Br)cc2c(=O)c1-c1ccccc1)n1ncc2c(N)ncnc21 (centres undefined)
70 | 138 to 139 | C=C[C@@H](C)[C@H]1CC[C@H]2[C@@H]3CCC4=CC(=O)CC[C@]4(C)[C@H]3CC[C@]12C
71 | 122 | O=C(O)c1cccc(P(c2ccccc2)c2ccccc2)n1
72 | 307 to 309 | COc1ccc(-c2nnc3c4ccccc4c(O)nn23)cc1

Row | melting point [°C] | Structure (SMILES)
73 | 179 to 182 | Cc1noc(NS(=O)(=O)c2cc(Cl)c(Cl)cc2Cl)c1Br
74 | 161 to 162 | Cc1noc(C)c1S(=O)(=O)Nc1cc(-c2ncc(C(F)(F)F)cc2Cl)ccc1Cl
75 | 153 to 154 | Clc1cccc(-c2nnnn2Cc2cscn2)c1Cl
76 | 114 to 116 | O=c1c(Cl)c(Cl)sn1C1CCCCC1
77 | 116 to 118 | CC(C)[C@H](NC(=O)OCc1ccccn1)C(=O)O
78 | 181 to 183 | CN1CCN(C2=Nc3ccccc3N3CCCc4cc(Br)cc2c43)CC1
79 | 196 to 198 | O=C1CCC(N2Cc3c(OCc4ccc(CN5CCNCC5)cc4)cccc3C2=O)C(=O)N1 (centres undefined)
80 | 61 to 65 | COC(=O)Cc1ccc(OCCNC(=O)C2Cc3ccccc3N2S(=O)(=O)c2ccc(-c3cc(Cl)ccc3Cl)cc2)cc1 (centres undefined)
81 | 177 to 178 | C=C(C(=O)Nc1ccc(CCc2nnco2)cc1)c1cnn(C)c1-c1ccc(F)cc1
82 | 114 to 115 | CCOC(=O)Cn1nc2ccc(Cl)nn2c1=O
83 | 115 to 116 | CSc1ccc(CCN2CCN(C(=O)c3ccc(N(CCOC(C)C)C(=O)CCl)cc3)CC2)cc1
84 | 144 to 150 | CN1CCN(C(c2ccc(Cl)cc2)c2ccccc2C(=O)O)CC1 (centres undefined)
85 | 213 to 214 | COc1ccc2c(c1)C(=O)N(c1ccc3c(cnn3C)c1)C2
86 | 207 | CCCC1=C(C(=O)OCC)C(c2cccc3nonc23)c2c[nH]nc2N1 (centres undefined)
87 | 202 to 203 | O=[N+]([O-])c1ccc(-c2noc(-c3ccccn3)n2)cc1
88 | 79 | COC(=O)c1ccc(OCCNC(=O)C2Cc3ccccc3N2S(=O)(=O)c2ccc(-c3cc(C(F)(F)F)ccc3Cl)cc2)cc1C(F)(F)F (centres undefined)
89 | 115 to 116 | OCC1=CCc2cc3ccccc3cc21
90 | 180 to 181 | CCc1nc2c(C)cc(C)nc2n1Cc1ccc2c(c1)c1ccccc1n2CCC#N
91 | 130 to 133 | COc1ccc(-c2cc(CO)c(=O)n(CC3CCCC3)n2)cc1F
92 | 126 to 127 | CCCc1c(OCCCCCc2ccc(O)c(O)c2)ccc(C(C)=O)c1O
93 | 137 | CC(C)(C)c1ccc(COc2ccc(S(=O)(=O)NC[C@@H](C(=O)NO)N3CCOCC3)cc2)cc1
94 | 150 to 155 | Cc1ccc2c(c1)C(CC(=O)NO)N(c1ccccc1)S2(=O)=O (centres undefined)
95 | 124 to 125 | CC1=C2C(Br)CC3C4CCCC4(C)CCC3C2(C)CCC1=O (centres undefined)

Row | Structure (SMILES) | melting point [°C]
96 | COc1ccc2[nH]c(C3CCC(c4ccccc4)(N(C)C)CC3)c(C)c2c1 (centres undefined) | 156 to 163
97 | CN1Cc2c(Cl)ncn2-c2ccc(F)cc2C1=O | 217 to 218
98 | CC(C)N1C(=O)C(C)(C)N=C(c2ccccc2Cl)c2cc(N)ccc21 | 243 to 244
99 | COC(=O)C1C=C2c3cccc4[nH]c(Br)c(c34)CC2N(C)C1 (centres undefined) | 124 to 125
